Literature values as cited in patent US20250381202A1, “PRODRUG KIT FOR MULTI-PRONGED CHEMOTHERAPY” (priority 2022, published 2025).
Like-named read-outs stand apart in the source and are kept apart here.

Conditions: in vivo tumor model, area under the curve until the drug concentration reaches zero

COc1cccc2c1C(=O)c1c(O)c3c(c(O)c1C2=O)C[C@@](O)(C(=O)CO)C[C@@H]3O[C@H]1C[C@H](N)[C@H](O)[C@H](C)O1 [doxorubicin, Doxorubicin]
AUC0-t (In blood): 80.9 µg·min/mL | AUC0-t (Tumor Mean PK): 33.4 µg·min/mL
